Test results from PubChem BioAssay AID2060501 (Molecular Pharmacology Branch, DTP, NCI, 2025).

Tested on: 282377-053-R-J1-PDC complex spheroids, viability
Assay: Anticancer human tumor 282377-053-R-J1-PDC patient-derived colon adenocarcinoma cell line growth inhibition [GQUAD]
Conditions: for IC50: curve of first compound; for viability, T/C: stronger effect = lower value; active means viability on the fitted dose curve at most 10% of control; inactive means the rest
In short: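 Viability of tumor cells grown as complex spheroids with endothelial and stromal cells, exposed to drug combinations. Top concentration at or near clinical Cmax (else 10 microM), diluted in half-log increments.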

[1] = second compound 0.0316 µM, first compound 0.0316 µM
[2] = second compound 0.0316 µM, first compound 0.1 µM
[3] = second compound 0.0316 µM, first compound 0.316 µM
[4] = second compound 0.0316 µM, first compound 1 µM
[5] = second compound 0.0316 µM, first compound 3.16 µM
[6] = second compound 0.0316 µM, first compound 10 µM
[7] = second compound 0.1 µM, first compound 0.0316 µM
[8] = second compound 0.1 µM, first compound 0.1 µM
[9] = second compound 0.1 µM, first compound 0.316 µM
[10] = second compound 0.1 µM, first compound 1 µM
[11] = second compound 0.1 µM, first compound 3.16 µM
[12] = second compound 0.1 µM, first compound 10 µM
[13] = second compound 0.316 µM, first compound 0.0316 µM
[14] = second compound 0.316 µM, first compound 0.1 µM
[15] = second compound 0.316 µM, first compound 0.316 µM
[16] = second compound 0.316 µM, first compound 1 µM
[17] = second compound 0.316 µM, first compound 3.16 µM
[18] = second compound 0.316 µM, first compound 10 µM
[19] = second compound 1 µM, first compound 0.0316 µM
[20] = second compound 1 µM, first compound 0.1 µM
[21] = second compound 1 µM, first compound 0.316 µM
[22] = second compound 1 µM, first compound 1 µM
[23] = second compound 1 µM, first compound 3.16 µM
[24] = second compound 1 µM, first compound 10 µM
[25] = second compound 3.16 µM, first compound 0.0316 µM
[26] = second compound 3.16 µM, first compound 0.1 µM
[27] = second compound 3.16 µM, first compound 0.316 µM
[28] = second compound 3.16 µM, first compound 1 µM
[29] = second compound 3.16 µM, first compound 3.16 µM
[30] = second compound 3.16 µM, first compound 10 µM
[31] = second compound 10 µM, first compound 0.0316 µM
[32] = second compound 10 µM, first compound 0.1 µM
[33] = second compound 10 µM, first compound 0.316 µM
[34] = second compound 10 µM, first compound 1 µM
[35] = second compound 10 µM, first compound 3.16 µM
[36] = second compound 10 µM, first compound 10 µM
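Further: spheroids exposed to compounds for 7 days before readout.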
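Wherever viability, T/C is given: percent of vehicle DMSO control viability with 100% = untreated-like growth.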

COc1cc(C2c3cc4c(cc3C(OC3OC5COC(C)OC5C(O)C3O)C3COC(=O)C23)OCO4)cc(OC)c1O (centres undefined) + Cc1[nH]c2ccc(F)cc2c1-c1nc2c3cccnc3c3ncccc3c2[nH]1
> 10000 nM: IC50 (second compound 0.0316 µM) | IC50 (second compound 0.1 µM) | IC50 (second compound 0.316 µM) | IC50 (second compound 1 µM)
384 nM: IC50 (second compound 10 µM)
inactive: viability, T/C [1] 99.9% | viability, T/C [2] 102% | viability, T/C [3] 104% | viability, T/C [4] 89% | viability, T/C [5] 66.5% | viability, T/C [6] 62.6% | viability, T/C [7] 94.3% | viability, T/C [8] 108% | viability, T/C [9] 83.5% | viability, T/C [10] 98.2% | viability, T/C [11] 76.4% | viability, T/C [12] 70.1% | viability, T/C [13] 102% | viability, T/C [14] 117% | viability, T/C [15] 96.2% | viability, T/C [16] 105% | viability, T/C [17] 76.9% | viability, T/C [18] 54.2% | viability, T/C [19] 113% | viability, T/C [20] 95.5% | viability, T/C [21] 95.2% | viability, T/C [22] 94.1% | viability, T/C [23] 72% | viability, T/C [24] 54.4% | viability, T/C [25] 72.5% | viability, T/C [26] 85.6% | viability, T/C [27] 73.5% | viability, T/C [28] 56% | viability, T/C [29] 24.8% | viability, T/C [30] 23.2% | viability, T/C [31] 52.7% | viability, T/C [32] 44% | viability, T/C [33] 63.8% | viability, T/C [34] 32.7% | viability, T/C [35] 16.1% | viability, T/C [36] 17.5%
1230 nM: IC50 (second compound 3.16 µM)

COc1cccc2c1C(=O)c1c(O)c3c(c(O)c1C2=O)CC(O)(C(=O)CO)CC3OC1CC(N)C(O)C(C)O1 (centres undefined) + Cc1[nH]c2ccc(F)cc2c1-c1nc2c3cccnc3c3ncccc3c2[nH]1
1320 nM: IC50 (second compound 0.1 µM)
222 nM: IC50 (second compound 3.16 µM)
inactive: viability, T/C [1] 108% | viability, T/C [2] 99.2% | viability, T/C [3] 86.4% | viability, T/C [4] 64.1% | viability, T/C [5] 18.5% | viability, T/C [7] 94.4% | viability, T/C [8] 114% | viability, T/C [9] 81.3% | viability, T/C [10] 64% | viability, T/C [11] 16.8% | viability, T/C [13] 98.1% | viability, T/C [14] 129% | viability, T/C [15] 83.4% | viability, T/C [16] 54% | viability, T/C [17] 16.8% | viability, T/C [19] 106% | viability, T/C [20] 116% | viability, T/C [21] 85.3% | viability, T/C [22] 47.3% | viability, T/C [23] 22% | viability, T/C [25] 78% | viability, T/C [26] 74.3% | viability, T/C [27] 32% | viability, T/C [28] 29.8% | viability, T/C [31] 36.5% | viability, T/C [32] 47.2% | viability, T/C [33] 23.8% | viability, T/C [34] 18.4%
< 31.6 nM: IC50 (second compound 10 µM)
1080 nM: IC50 (second compound 0.316 µM)
active: viability, T/C [6] 1.16% | viability, T/C [12] 1.17% | viability, T/C [18] 0.84% | viability, T/C [24] 0.99% | viability, T/C [29] 9.5% | viability, T/C [30] 0.94% | viability, T/C [35] 7.13% | viability, T/C [36] 0.99%
1350 nM: IC50 (second compound 0.0316 µM)
991 nM: IC50 (second compound 1 µM)
